Earlier results in paper PMC7692329, “Inhibitory Effect of AB-PINACA, Indazole Carboxamide Synthetic Cannabinoid, on Human Major Drug-Metabolizing Enzymes and Transporters” (Pharmaceutics, 2020).
Read-outs that look alike come from different tables or passages of the source.

Key:
CYP2C19 = conditions: cited from earlier work
CYP3A4 = conditions: cited from earlier work
CYP2B6 = conditions: read-out: Ki, CYP2B6; cited from earlier work
CYP2C8 = conditions: cited from earlier work
CYP2C9 = conditions: cited from earlier work
CYP2D6 = conditions: read-out: Ki, CYP2D6; cited from earlier work
[1] = child, chewing an AB-PINACA contaminated cigarette; cited from earlier work
UGT2B7 = tested on: UGT2B7; design: method as in PMID 28287454; conditions: cited from earlier work
UGT1A3 = conditions: cited from earlier work
[2] = tested on: OCT1/2, OAT1/3, and OATP1B1/1B3; design: method as in PMID 31430908; conditions: cited from earlier work
UGT1A9 = conditions: read-out: Ki, UGT1A9; noncompetitive inhibition; cited from earlier work
CES1 = tested on: CES1; design: method as in PMID 25346527; conditions: 100 μM benzil, human liver microsomes; cited from earlier work
[3] = read-out: Ki, CYP3A4 (time-dependent), time-dependent inhibition

SMILES: CC(C)C(NC(=O)c1nn(Cc2ccc(F)cc2)c2ccccc12)C(N)=O (stereo not shown) [AB-FUBINACA, N-(1-amino-3-methyl-1-oxobutan-2-yl)-1-(4-fluorobenzyl)-1H-indazole-3-carboxamide]
- Ki (CYP2C19; read-out: Ki, CYP2C19): 6.3 µM
- inhibition of CYP3A4 (CYP3A4): did not inhibited
- Ki (CYP2B6): 15 µM
- Ki (CYP2C8; read-out: Ki, CYP2C8): 19.9 µM
- Ki (CYP2C9; read-out: Ki, CYP2C9): 13.1 µM
- Ki (CYP2D6): 20.8 µM

SMILES: CC(C)C(NC(=O)c1nn(CCCCC(=O)O)c2ccccc12)C(N)=O (stereo not shown) [AB-PINACA pentanoic acid]
- serum level [1]: 345 ng/mL

SMILES: O=C(c1cccc2ccccc12)c1cn(CCCCCF)c2ccccc12 [AM-2201]
- IC50 (UGT2B7): 10 µM
- IC50 (UGT1A3): 4.3 µM
- IC50 (CYP3A4; read-out: IC50, CYP3A4): 4 µM
- IC50 (CYP2C9; read-out: IC50, CYP2C9): 3.9 µM

SMILES: CCCCCn1nc(C(=O)NC23CC4CC(CC(C4)C2)C3)c2ccccc21 [APINACA, N-(1-adamantyl)-1-pentyl-1H-indazole-3-carboxamide]
- inhibition of transport activity of OCT1/2, OAT1/3, and OATP1B1/1B3 [2]: did not inhibit
- Ki (CYP3A4; [3]): 4.5 µM
- kinact, CYP3A4 (CYP3A4; time-dependent inhibition): 0.04686 min⁻¹
- kinact/Ki, CYP3A4 (CYP3A4; time-dependent inhibition): 10.3 mL/µmol/min
- Ki (UGT1A9): 5.9 µM

SMILES: CCc1ccc(C(=O)c2cn(CCCCCF)c3ccccc23)c2ccccc12 [EAM-2201]
- Ki (CYP2C19; read-out: Ki, CYP2C19 (time-dependent), time-dependent inhibition): 3.8 µM
- kinact, CYP2C19 (CYP2C19; time-dependent inhibition): 0.0264 min⁻¹
- Ki (UGT1A3; competitive inhibition): 2.4 µM
- Ki (CYP3A4; [3]): 4.1 µM
- kinact, CYP3A4 (CYP3A4; time-dependent inhibition): 0.0250 min⁻¹
- kinact/Ki, CYP3A4 (CYP3A4; time-dependent inhibition): 6.9 mL/µmol/min
- Ki (CYP2C8; read-out: Ki, CYP2C8 (time-dependent), time-dependent inhibition): 0.54 µM
- kinact, CYP2C8 (CYP2C8; time-dependent inhibition): 0.0633 min⁻¹
- Ki (CYP2C9; read-out: Ki, CYP2C9 (time-dependent), time-dependent inhibition): 3 µM
- kinact, CYP2C9 (CYP2C9; time-dependent inhibition): 0.0462 min⁻¹

SMILES: Cc1ccc(C(=O)c2cn(CCCCCF)c3ccccc23)c2ccccc12 [MAM-2201]
- Ki (UGT1A3): 5 µM
- Ki (CYP3A4; read-out: Ki, CYP3A4): 5.4 µM
- Ki (CYP2C9; read-out: Ki, CYP2C9): 5.6 µM

SMILES: O=C(C(=O)c1ccccc1)c1ccccc1 [benzil]
- effect on formation of AB-PINACA carboxylic acid (CES1): abolished

SMILES: CC[C@H]1OC(=O)[C@H](C)[C@@H](O[C@H]2C[C@@](C)(OC)[C@@H](O)[C@H](C)O2)[C@H](C)[C@@H](O[C@@H]2O[C@H](C)C[C@H](N(C)C)[C@H]2O)[C@](C)(OC)C[C@@H](C)C(=O)[C@H](C)[C@@H](O)[C@]1(C)O [clarithromycin]
- inactivation efficiency (kinact/Ki), CYP3A4 (CYP3A4; representative clinical CYP3A4-mediated drug interactions): 2.8 mL/µmol/min
